Tests used:
normal rat kidney cells = assay type: cell-based; settings: on a ng equivalent basis
[1] = tested on: normal rat kidney fibroblasts, clone 49F; test: Soft agar growth assay; assay type: cell-based; settings: tested with up to 10 μg
Procedure: The assay for colony growth in soft agar, using normal rat kidney fibroblasts, clone 49F, was performed as reported in Todaro et al. (1980) Proc. Natl. Acad. Sci. USA 77, pp. 5258-5262. Lyophilized samples to be tested were reconstituted in 0.5 ml of Dulbecco's modified Eagle's medium, supplemented with 10% calf serum. 1.5 ml of 0.5% (w/v) agar (Difco) in the supplemented medium and 0.5 ml of supplemented medium containing 2.3×10^4 cells were added. 2.3 ml of the resultant mixture were pipetted on a 2-ml base layer (0-5% agar in supplemented medium) in 60-mm Petri dishes (Falcon). The cells were incubated at 37° C. in a humidified 5% CO2 /95% air atmosphere. The assay was read unfixed and unstained at 5 days and at 10-14 days.

[2] = tested on: antiserum against peptide III; test: Radioimmunoassay, inhibition of precipitation of 125I-peptide III; assay type: binding, rabbit
Procedure: Rabbits were immunized by subcutaneous injection of 1 mg of conjugate injected subcutaneously at four separate sites. Two booster injections were administered at bi-weekly intervals following the initial injection. The serum used in this study was collected eighty days after the initial injection. An immunoglobulin fraction of this serum was prepared by ammonium sulfate precipitation. The product of antibodies specific for immunizing peptide was monitored with a solid phase enzyme-linked immunoabsorbent assay.
Reactants were mixed in a final volume of 50 microliters of a solution containing: 20 mM sodium phosphate, at pH 7.4; 200 mM NaCl: 40 mM dithiothreitol; 0.1% (w:v) BSA; 0.1% (w:v) NaN3 : ^125 I-peptide III; (10^4 cpm); antiserum at a final dilution of 1/15,000; and other additions, as specified. The reaction was initiated by the addition of antiserum and continued at 23° C. for 90 minutes. An equal volume of 10% formalin-fixed Staphalococcus A (Pansorbin, Calbiochem) was then added and incubation was continued for an additional 30 minutes at 23° C. The immunoadsorbant was removed by sedimentation through a cushion of 10% (w:v) sucrose and the amount of bound ^125 I-peptide III was determined using a gamma counter. Under these conditions, approximately 25% of ^125 I-peptide was bound by antibody in the absence of competitor. The amount of bound peptide III was corrected for non-specific binding measured in the absence of antibody (less than 5% of the total) and expressed as a percentage of maximal binding. Concentrations of competitors were expressed as the amount of peptide III required to give an equivalent inhibition of precipitation.

anti-KLH-peptide 1 IgG = test: Solid phase RIA, 125I anti-KLH-peptide 1 IgG on BSA-peptide 1; assay type: binding, rabbit
Procedure: TGF peptide 1 was coupled to keyhole limpet hemocyanin (KLH) or bovine serum albumin (BSA) by thiol/maleimide linkage (King et al. (1979) J. Immunol. Methods 28, pp. 201-206). Carrier-peptide complexes were purified by gel filtration. An average of 60 moles peptide/mole KLH and 20 moles peptide/mole BSA was achieved. Rabbits were immunized with the KLH-peptide 1 conjugate by multiple subcutaneous (s.c.) and intramuscular (i.m.) injections of 2 mg protein in complete Freund's adjuvant. Rabbits were boosted s.c. every two weeks with the immunogen in incomplete Freund's adjuvant. The IgG fraction of the antiserum after 5 boosts was used for immunoassays and radiolabeled using Na^125 I (NEN) and Enzymobeads (Bio-Rad) to 4×10^5 cpm/μg protein. Polyvinyl chloride 96-well plates (Costar) were coated with 200 μg/mL BSA-peptide 1 conjugate and countercoated with 10% normal rabbit serum in phosphate-buffered saline. Plates were incubated for 4 hours at 37° C. with [^125 I]anti-KLH-peptide 1 IgG (50,000 cpm/well) in the presence or absence of inhibitors, washed and individual wells were counted.

[3] = tested on: 125I-labeled rat TGF binding to EGF receptors of A431 cells; test: Binding of 125I-labeled rat TGF to A431 cells; set-up: species or system human
Procedure: was synthesized using the solid-phase technique of Ohgak et al. (1983) Journal of Immunol. Meth. 57, pp. 171-184. This oligopeptide was then coupled to keyhole limpet hemocyanin in accordance with the procedure of Baron et al. (1982) Cell 28, pp. 395-404, and used to immunize rabbits (Baron et al. (1982) Cell 28, pp. 395-404) and sheep (Lerner (1982) Nature 299, pp. 592-596). Antisera were assayed against peptide by a peroxidase-linked immunoassay (Kirkegaard and Perry Laboratories, Gaithersberg, Md.) and against homogeneous rat TGF (purified according to Example II above), by immunoprecipitation (Bister et al. (1980) J. Virol. 36, pp. 617-621) and Western blotting techniques (Burnett (1981) Analyt. Biochem. 112, pp. 195-203). Binding of ^125 I-labeled rat TGF and mouse EGF (Bethesda Research Labs, Bethesda, Md.) to A431 cells grown in 96-well microtiter plates was as described in Pross et al. (1977) Proc. Natl. Acad. Sci. U.S.A. 74, pp. 3918-3921.
Human epidermoid carcinoma A431 cells have in excess of 10^6 EGF receptors per cell (Fabricant et al. (1977) Proc. Natl. Acad. Sci. U.S.A. 74, pp. 565-569). TGF competes with EGF for binding to these receptors. Binding of ^125 I-labeled rat TGF to these cells was blocked by an excess of unlabeled EGF and by antiserum to peptide. […]

EGF receptor = target: T1, EGF receptor (Homo sapiens, UniProt P00533); test: 125I-EGF radioreceptor assay on formalin-fixed A431 human carcinoma cells; assay type: binding
T1 construct: subconfluent monolayers of formalin-fixed A431 human carcinoma cells; endogenous in cells; host or cells: A431 human carcinoma cells, formalin-fixed
Procedure: The fixed cells were washed twice with 0.5 ml of binding buffer (Dulbecco's modified Eagle's medium containing 1 mg/ml of bovine serum albumin and 50 mM 2-[bis(2-hydroxyethyl)amino]ethanesulfonic acid, pH 6.8).
TGF was quantitated in a radioreceptor assay based on receptor cross-reactivity with mouse submaxillary gland epidermal growth factor (mEGF).

## EGF: mouse submaxillary gland epidermal growth factor
Normal rat kidney cells
  colonies in soft agar: 120 colonies
[1]
  stimulation of growth in soft agar: does not stimulate growth
[2]
  highest concentration without inhibition of precipitation of 125I-peptide III: greater than 1 μM
[2]; half-maximal inhibitory concentration relative to peptide III, standard RIA, > = highest concentration tested
  Relative Inhibitory Activity: > 1500
Mink fibroblasts
  increase in DNA synthesis relative to unstimulated serum deprived cells: 59%
anti-KLH-peptide 1 IgG
  inhibition of antibody reaction with BSA-TGF peptide: did not cause significant inhibition
[3]
  binding of 125I-labeled rat TGF to A431 cells: blocked
EGF receptor; 0.4 ng 125I-EGF, 1 h at 22° C.
  amount required to inhibit EGF binding by 50%: 1.1 ng
EGF receptor; 125I-EGF at 0.33 nM (Example XI), read-out: concentration giving half-maximal inhibition of 125I-EGF binding
  IC50: 0.3 to 0.5 nM
